From publication PMC12649290 (Journal of Clinical Pharmacology, 2025)

What was measured:
[1] = Population pharmacokinetic (popPK) model developed on OSIBOOST trial plasma concentrations (NONMEM); format: in vivo, human; conditions: for CL/F, Population Estimate (RSE%) / V/F, Population Estimate (RSE%): allometrically scaled on bodyweight of 70 kg; for CL/F, Population Estimate (RSE%): exponent 0.75; for V/F, Population Estimate (RSE%): exponent 1; for CL/F, Bootstrap Median / V/F, Bootstrap Median: non-parametric bootstrap n = 1000
Protocol: The data used in this study were obtained from the OSIBOOST clinical trial (NCT03858491).[15] The trial was approved by an independent medical ethics committee (METC19‐013) and was conducted in accordance with the 1964 Helsinki declaration (and its amendments). All patients provided written informed consent. Patients were included from one academic medical center and a specialized tertiary referral center in the Netherlands (the Maastricht University Medical Centre and the Antoni van Leeuwenhoek hospital). […] After 21 days of concomitant treatment with cobicistat (to reach steady state), PK samples (pre‐dose, 0.5‐1.5 h, 2.5‐3.5 h, 7‐8 h) of the concomitant therapy were collected.
PK data were analyzed with NONMEM version 7.4.4, Perl‐speaks‐NONMEM (PsN) version 5.4.0, R version 4.4.2, and Rstudio version 2024.09.0. The packages xpose, tidyvpc, mrgsolve, and ggplot2 in R were used for plotting and simulations.
A base popPK model was developed with the data from osimertinib monotherapy, using the first‐order conditional estimation method with interaction (FOCE‐I). […] Parameter changes were tested with stepwise inclusion and backward elimination. A decrease of more than −3.84 ΔOFV (P < .05) was considered a significant improvement when a single parameter was added to nested models. For backward elimination, a stricter criterion of 6.63 ΔOFV (P < .01) was used when removing a parameter from the popPK model.[25] One‐compartment and two‐compartment models were tested to best describe the data. Exponential between subject variability (BSV) on the popPK parameters was explored in a step‐wise approach. Residual error was tested as an additional, proportional, and a combined error model.
Developed popPK models were evaluated based on successful minimization, change in objective function value (ΔOFV), numerical diagnostics, standard goodness of fit (GOF) plots, and conditional weighted residuals (CWRES) plots. The performance of the developed popPK models was assessed with prediction‐corrected visual predictive check (pcVPC) and normalized prediction distribution error (NPDE) plots.[27] For the final popPK model, the median parameter estimate and 95% confidence interval (CI) were obtained non‐parametric bootstrap procedure (n = 1000) and can be considered as an internal validation.[28], [29] Relative standard errors (RSE%) of estimated parameters were acceptable when <30%.[30] A condition number was considered acceptable if […].[30] Both η‐shrinkage and ε‐shrinkage were considered appropriate if <30%.[31]

[2] = cited from earlier work
[3] = cited from earlier work; remark: listed apart in the source

Row | SMILES | CL/F, Population Estimate (RSE%) [1] | V/F, Population Estimate (RSE%) [1] | CL/F, Bootstrap Median [1] [L/h] | V/F, Bootstrap Median [1] [L] | Increase of osimertinib exposure (mean AUC0‐24h) by cobicistat ([2]; 11 patients with Cmin,SS ≤ 195 µg/L, noncompartmental analysis) [%] | Adverse events of cobicistat boosted osimertinib ([2]; 11 patients with low osimertinib exposure) | Increase in osimertinib exposure when combined with itraconazole [3] [%] | Coefficient of variation (CV%) of the BSV on CL/F ([1]; in vivo) [%]
1 | C=CC(=O)Nc1cc(Nc2nccc(-c3c[nH]c4ccccc34)n2)c(OC)cc1N(C)CCN(C)C [AZ5104] | 47.3 (7.8%) L/h | 184 (48.5%) L | 46.3 | 181 | – | – | – | –
2 | CC(C)c1nc(CN(C)C(=O)N[C@@H](CCN2CCOCC2)C(=O)N[C@H](CC[C@H](Cc2ccccc2)NC(=O)OCc2cncs2)Cc2ccccc2)cs1 [cobicistat] | – | – | – | – | 50 | without any grade ≥3 adverse events (AEs) or new safety signals | – | –
3 | CCC(C)n1ncn(-c2ccc(N3CCN(c4ccc(OCC5COC(Cn6cncn6)(c6ccc(Cl)cc6Cl)O5)cc4)CC3)cc2)c1=O (stereo not drawn) [itraconazole] | – | – | – | – | – | – | 24 | –
4 | C=CC(=O)Nc1cc(Nc2nccc(-c3cn(C)c4ccccc34)n2)c(OC)cc1N(C)CCN(C)C [osimertinib] | 19.0 (8.5%) L/h | 990 (29%) L | 19.0 | 966 | – | – | – | 21.5
